{"source": "patent US10508104B2", "about": "“6-hydroxy-5-(phenyl/heteroarylsulfonyl)pyrimidin-4(1H)-one as APJ agonists” (Bristol-Myers Squibb Company, priority 2016, dated 2019)"}
{"biological_target": "human APJ receptor (Homo sapiens (Human), UniProt P35414)", "sequence (P35414 whole entry)": "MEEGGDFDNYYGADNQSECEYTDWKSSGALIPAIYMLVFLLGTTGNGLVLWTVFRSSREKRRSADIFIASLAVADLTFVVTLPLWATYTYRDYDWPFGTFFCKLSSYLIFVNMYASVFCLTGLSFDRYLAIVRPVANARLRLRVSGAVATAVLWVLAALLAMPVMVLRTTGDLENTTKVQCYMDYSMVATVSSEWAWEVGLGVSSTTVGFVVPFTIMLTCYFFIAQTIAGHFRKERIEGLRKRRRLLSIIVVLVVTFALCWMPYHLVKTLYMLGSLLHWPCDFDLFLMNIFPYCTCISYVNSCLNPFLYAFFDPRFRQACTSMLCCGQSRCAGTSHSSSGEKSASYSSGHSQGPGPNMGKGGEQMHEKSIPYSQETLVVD", "assay": "Intracellular cAMP accumulation assay (APJ hcAMP, HTRF)", "assay_type": "cell-based", "details": "HEK293 cells stably expressing human APJ receptor; inhibition of forskolin-mediated cAMP production; read-out: Human APJ cAMP EC50 Potency range", "in_short": "(§1)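 HEK293 cells stably expressing human APJ, 5,000 per well, incubated 30 min at rt with compound, […] and 2 μM forskolin. cAMP measured by HTRF against a cAMP standard curve as inhibition of forskolin-driven production. EC50 from variable-slope sigmoidal fit.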", "units": {"EC50": "nM"}}
{"smiles": "COC[C@@H](c1cccc(C#N)c1)n1c(COC(C)C)nc(=O)c(S(=O)(=O)c2ccc(-c3c[nH]nc3C)cc2)c1O", "note": "[Example 394, 3-[(1R)-1-{6-hydroxy-5-[4-(3-methyl-1H-pyrazol-4-yl)benzenesulfonyl]-4-oxo-2-[(propan-2-yloxy)methyl]-1,4-dihydropyrimidin-1-yl}-2-methoxyethyl]benzonitrile]", "EC50": "0.01 to 10"}
{"smiles": "CC[C@@H](c1cccc(C#N)c1)n1c(CC2CC2)nc(=O)c(S(=O)(=O)c2ccc(-c3cccnc3C(N)=O)cc2)c1O", "note": "[Example 486, 3-[4-({1-[(1S)-1-(3-cyanophenyl)propyl]-2-(cyclopropylmethyl)-6-hydroxy-4-oxo-1,4-dihydropyrimidin-5-yl}sulfonyl)phenyl] pyridine-2-carboxamide]", "EC50": "0.01 to 10"}
{"smiles": "COC[C@@H](c1ccccc1)n1c(CCC(C)C)nc(=O)c(S(=O)(=O)c2ccc(Br)cc2)c1O", "note": "[Example 184, (R)-5-((4-Bromophenyl)sulfonyl)-6-hydroxy-2-isopentyl-3-(2-methoxy-1-phenylethyl)pyrimidin-4(3H)-one]", "EC50": "10 to 100"}
{"smiles": "CCCCc1nc(=O)c(S(=O)(=O)[C@H]2CC[C@@H](OCc3ccccc3)CC2)c(O)n1-c1c(OC)cccc1OC", "note": "[Example 367, 2-butyl-1-(2,6-dimethoxyphenyl)-6-hydroxy-5-{[(1s,4s)-4-(benzyloxy)cyclohexyl]sulfonyl}-1,4-dihydropyrimidin-4-one]", "EC50": "0.01 to 10"}
{"smiles": "CCOCc1nc(=O)c(S(=O)(=O)c2ccc(-c3cccnc3C)cc2)c(O)n1[C@@H](CC)c1cccc(C#N)c1", "note": "[Example 435, 3-[(1S)-1-[2-(ethoxymethyl)-6-hydroxy-5-[4-(2-methylpyridin-3-yl)benzenesulfonyl]-4-oxo-1,4-dihydropyrimidin-1-yl]propyl]benzonitrile]", "EC50": "0.01 to 10"}
{"smiles": "CCCCc1nc(=O)c(S(=O)(=O)c2ccc(-c3ccnc(F)c3C)cc2)c(O)n1[C@@H](CC)c1ccnc(C#N)c1", "note": "[Example 526, 4-[(1S)-1-{2-butyl-5-[4-(2-fluoro-3-methylpyridin-4-yl)benzenesulfonyl]-6-hydroxy-4-oxo-1,4-dihydropyrimidin-1-yl}propyl]pyridine-2-carbonitrile]", "EC50": "0.01 to 10"}
{"smiles": "CCOCc1nc(=O)c(S(=O)(=O)c2ccc(-c3ccccc3C(=O)NC)cc2)c(O)n1[C@H]1CCc2ccccc21", "note": "[Example 421, 4′-({1-[(1S)-2,3-dihydro-1H-inden-1-yl]-2-(ethoxymethyl)-6-hydroxy-4-oxo-1,4-dihydropyrimidin-5-yl}sulfonyl)-N-methy1-[1,1′-biphenyl]-2-carboxamide]", "EC50": "0.01 to 10"}
{"smiles": "CCCCc1nc(=O)c(S(=O)(=O)[C@H]2CC[C@H](O)CC2)c(O)n1-c1c(CC)cccc1CC", "note": "[Example 553, 2-butyl-1-(2,6-diethylphenyl)-6-hydroxy-5-{[(1r,4r)-4-hydroxycyclohexyl]sulfonyl}-1,4-dihydropyrimidin-4-one]", "EC50": "0.01 to 10"}
{"biological_target": "human APJ receptor (Homo sapiens (Human), UniProt P35414)", "assay": "Intracellular cAMP accumulation assay (APJ hcAMP, HTRF)", "assay_type": "cell-based", "details": "human APJ, cAMP accumulation; read-out: Human APJ cAMP EC50 Potency range", "in_short": "as §1", "units": {"EC50": "nM"}}
{"smiles": "COc1cccc(OC)c1-n1c(-c2cncc(C)c2)nc(=O)c(S(=O)(=O)c2ccc(-n3cc(Cl)ccc3=O)cc2)c1O", "note": "[Example 276, 5-[4-(5-chloro-2-oxo-1,2-dihydropyridin-1-yl)benzenesulfonyl]-1-(2,6-dimethoxyphenyl)-6-hydroxy-2-(5-methylpyridin-3-yl)-1,4-dihydropyrimidin-4-one]", "EC50": "0.01 to 10"}
{"smiles": "CCOCc1nc(=O)c(S(=O)(=O)c2ccc(-c3ccc(F)nc3)cc2)c(O)n1[C@@H](CC)c1ccccc1", "note": "[Example 305, 2-(ethoxymethyl)-5-[4-(6-fluoropyridin-3-yl)benzenesulfonyl]-6-hydroxy-1-[(1S)-1-phenylpropyl]-1,4-dihydropyrimidin-4-one]", "EC50": "0.01 to 10"}
{"smiles": "CCCCc1nc(=O)c(S(=O)(=O)c2ccc(C3CC3)cc2)c(O)n1[C@@H](CC)c1cccc(C#N)c1", "note": "[Example 348, 3-[(1S)-1-[2-butyl-5-(4-cyclopropylbenzene-sulfonyl)-6-hydroxy-4-oxo-1,4-dihydropyrimidin-1-yl]propyl]benzonitrile]", "EC50": "0.01 to 10"}
{"smiles": "CCCCc1nc(=O)c(S(=O)(=O)c2ccc(-c3ccncc3C)cc2)c(O)n1[C@H]1CCCc2ccccc21", "note": "[Example 224, 2-butyl-6-hydroxy-5-[4-(3-methylpyridin-4-yl)benzenesulfonyl]-1-[(1S)-1,2,3,4-tetrahydronaphthalen-1-yl]-1,4-dihydropyrimidin-4-one]", "EC50": "0.01 to 10"}
{"smiles": "CCCCc1nc(=O)c(S(=O)(=O)c2ccc(-c3cccnc3C)cc2)c(O)n1[C@H]1CCCc2ccccc21", "note": "[Example 221, 2-butyl-6-hydroxy-5-[4-(2-methylpyridin-3-yl)benzenesulfonyl]-1-[(1S)-1,2,3,4-tetrahydronaphthalen-1-yl]-1,4-dihydropyrimidin-4-one]", "EC50": "0.01 to 10"}
{"biological_target": "human APJ receptor (Homo sapiens (Human), UniProt P35414)", "assay": "Intracellular cAMP accumulation assay (APJ hcAMP, HTRF)", "assay_type": "cell-based", "details": "human APJ, intracellular cAMP accumulation; read-out: Human APJ cAMP EC50 Potency range", "in_short": "as §1", "units": {"EC50": "nM"}}
{"smiles": "CCCCc1nc(=O)c(S(=O)(=O)c2ccc(-c3ccnc(F)c3C)cc2)c(O)n1[C@H]1CCc2ccccc21", "note": "[Example 164, 2-butyl-1-[(1S)-2,3-dihydro-1H-inden-1-yl]-5-[4-(2-fluoro-3-methylpyridin-4-yl)benzenesulfonyl]-6-hydroxy-1,4-dihydropyrimidin-4-one]", "EC50": "0.01 to 10"}
{"smiles": "CCCCc1nc(=O)c(S(=O)(=O)c2ccc(-c3ccc(F)cc3)c(F)c2)c(O)n1-c1c(OC)cccc1OC", "note": "[Example 68, 2-butyl-1-(2,6-dimethoxyphenyl)-5-[3-fluoro-4-(4-fluorophenyl)benzene-sulfonyl]-6-hydroxy-1,4-dihydropyrimidin-4-one]", "EC50": "0.01 to 10"}
{"smiles": "CCCCc1nc(=O)c(S(=O)(=O)c2ccc(-c3cnc(F)cc3C)cc2)c(O)n1[C@@H](COC)c1ccccc1", "note": "[Example 152, 2-butyl-5-[4-(6-fluoro-4-methylpyridin-3-yl)benzenesulfonyl]-6-hydroxy-1-[(1R)-2-methoxy-1-phenylethyl]-1,4-dihydropyrimidin-4-one]", "EC50": "0.01 to 10"}
{"smiles": "CCCCc1nc(=O)c(S(=O)(=O)c2ccc(C3CC3)cn2)c(O)n1-c1c(OC)cccc1OC", "note": "[Example 101, 2-butyl-5-[(5-cyclopropylpyridin-2-yl)sulfonyl]-1-(2,6-dimethoxyphenyl)-6-hydroxy-1,4-dihydropyrimidin-4-one]", "EC50": "0.01 to 10"}
{"smiles": "COc1cccc(OC)c1-n1c(CCC(C)C)nc(=O)c(S(=O)(=O)c2cccc(-c3ccc(F)nc3)c2)c1O", "note": "[Example 23, 1-(2,6-dimethoxyphenyl)-5-[3-(6-fluoropyridin-3-yl)benzenesulfonyl]-6-hydroxy-2-(3-methylbutyl)-1,4-dihydropyrimidin-4-one]", "EC50": "0.01 to 10"}
{"smiles": "CCCCc1nc(=O)c(S(=O)(=O)c2ccc(C(=O)N3CC(C)(O)C3)cc2)c(O)n1-c1c(OC)cccc1OC", "note": "[Example 94, 2-butyl-1-(2,6-dimethoxyphenyl)-6-hydroxy-5-[4-(3-hydroxy-3-methylazetidine-1-carbonyl)benzenesulfo-nyl]-1,4-dihydropyrimidin-4-one]", "EC50": "0.01 to 10"}
{"smiles": "CCCCc1nc(=O)c(S(=O)(=O)c2ccc(-c3ncn(C)n3)cc2)c(O)n1-c1c(OC)cccc1OC", "note": "[Example 80, 2-butyl-1-(2,6-dimethoxyphenyl)-6-hydroxy-5-[4-(1-methyl-1H-1,2,4-triazol-3-yl)benzenesulfonyl]-1,4-dihydropyrimidin-4-one]", "EC50": "0.01 to 10"}
{"smiles": "CCCCc1nc(=O)c(S(=O)(=O)c2ccc(-c3ccncc3C)cc2)c(O)n1[C@@H](CC)c1cccc(OC)c1", "note": "[Example 144, 2-butyl-6-hydroxy-1-[(1S)-1-(3-methoxyphenyl)propyl]-5-[4-(3-methylpyridin-4-yl)benzenesulfonyl]-1,4-dihydropyrimidin-4-one]", "EC50": "0.01 to 10"}
